Columns and labels:
[1] = target: T1, human PGI2 receptors (hIP) (Homo sapiens, UniProt P43119); experiment: Method B: positive allosteric modulator activity, cAMP in CHO/hIP cells with 1 nM epoprostenol; assay type: cell-based; conditions: cAMP relative to 1 nM epoprostenol alone
T1 construct: expressed in transfected cells; host or cells: CHO-K1
Procedure: The positive allosteric modulator activity of a test compound was measured as a change in the amount of intracellular cyclic AMP (cAMP) in the presence of 1 nM of the IP agonist epoprostenol (manufactured by GlaxoSmithKline), using CHO-K1 cells (CHO/hIP cells) in which human PGI2 receptors (hIP) are stably expressed.
An amount of 5 μL of a mixture (diluted in F-12 culture medium (manufactured by GIBCO) including 0.1% BSA) of epoprostenol dissolved in DMSO and a test compound dissolved in DMSO was dispensed in advance into a 384-well black microplate, and 5 μL of CHO/hIP cells suspended at a concentration of 1.4×10^6 cells/mL in F-12 culture medium including 0.1% BSA were added to the microplate. After 40 minutes of incubation at room temperature, the amount of cAMP was measured using a cAMP assay kit (cAMP HiRange, manufactured by Cisbio Bioassays). Specifically, 5 μL of a cAMP-d2 solution (including a cell lysate) from the kit were added and the reaction was stopped, then 5 μL of a fluorescence-labeled cAMP antibody solution from the kit were added and incubation was performed for 1 hour at room temperature, after which fluorescence was measured using a PHERAstar plate reader (manufactured by BMG) in HTRF (registered trademark) mode. The amount of cAMP in each well was calculated from a cAMP calibration curve obtained using a standard sample, and the activity of each test compound is noted below as a ratio T/C (%) based on the amount of cAMP for 1 nM of epoprostenol alone.

[2] = target: T1, human PGI2 receptors (hIP); experiment: Method C: effect on epoprostenol-cAMP production curve in CHO/hIP cells (left shift value); assay type: cell-based; conditions: Table 4, concentration of test compound that halves the EC50 of epoprostenol
Procedure: The effect of a test compound on the cAMP production curve with respect to the IP agonist epoprostenol (manufactured by GlaxoSmithKline) was investigated using CHO-K1 cells (CHO/hIP cells) in which human PGI2 receptors (hIP) are stably expressed.
(§1) An amount of 5 μL of a mixture (diluted in F-12 culture medium (manufactured by GIBCO) including 0.1% BSA) of epoprostenol dissolved in DMSO and a test compound dissolved in DMSO was dispensed in advance into a 384-well black microplate, and 5 μL of CHO/hIP cells suspended at a concentration of 1.4×10^6 cells/mL in F-12 culture medium including 0.1% BSA were added to the microplate. After 40 minutes of incubation at room temperature, the amount of cAMP was measured using a cAMP assay kit (cAMP HiRange, manufactured by Cisbio Bioassays). Specifically, 5 μL of a cAMP-d2 solution (including a cell lysate) from the kit were added and the reaction was stopped, then 5 μL of a fluorescence-labeled cAMP antibody solution from the kit were added and incubation was performed for 1 hour at room temperature, after which fluorescence was measured using a PHERAstar plate reader (manufactured by BMG) in HTRF (registered trademark) mode. The amount of cAMP in each well was calculated from a cAMP calibration curve obtained using a standard sample, and an epoprostenol-cAMP production curve for the presence of various concentrations of the test compound was created.

[3] = target: T1, human PGI2 receptors (hIP); experiment: Method D: effect on cAMP production in human aortic smooth muscle cells (left shift value); assay type: cell-based; conditions: concentration of test compound that halves the EC50 of epoprostenol
Procedure: The effect of a test compound on the cAMP production curve with respect to the IP agonist epoprostenol (manufactured by GlaxoSmithKline) was investigated using human aortic smooth muscle cells known to express human PGI2 receptors (hIP).
as §1, with “created. […]” for “created.”

[4] = tested on: thoracic aorta of the marmot; experiment: Magnus test using a blood vessel removed from a marmot; conditions: 20 μM of test compound; FIG. 2
Procedure: An incision was made in the thoracic region of a marmot (slc/Harley, male, 11-12 weeks of age) under anesthesia, and the thoracic aorta of the marmot was removed. The vascular endothelium was removed using a thread, after which the blood vessel was cut into a round slice having a width of approximately 2 mm and fixed to a fixing rod using thread or a stainless steel hook, and placed in a 10 mL Magnus tube maintained at a temperature of 37° C. and saturated with a 95% O2/5% CO2 gas mixture, and a tension of 1 g was placed on the blood vessel. When the tension on the specimen became stable, phenylephrine (phenylephrine hydrochloride, PHE, manufactured by Sigma-Aldrich Japan, final concentration: 3×10^−6 mol/L) was added thereto to cause the specimen to contract, the test compound or a solvent was added when the contraction became stable, the IP agonist beraprost (beraprost sodium, manufactured by Cayman Chemical) was cumulatively added after 15 minutes to give a final concentration of 1 nM to 1000 nM, and the change in relaxation response was recorded.
The contraction inhibition rate for each set of data was calculated using a contraction rate of 100% as the control (DMSO addition).

T1 sequence (P43119 whole entry): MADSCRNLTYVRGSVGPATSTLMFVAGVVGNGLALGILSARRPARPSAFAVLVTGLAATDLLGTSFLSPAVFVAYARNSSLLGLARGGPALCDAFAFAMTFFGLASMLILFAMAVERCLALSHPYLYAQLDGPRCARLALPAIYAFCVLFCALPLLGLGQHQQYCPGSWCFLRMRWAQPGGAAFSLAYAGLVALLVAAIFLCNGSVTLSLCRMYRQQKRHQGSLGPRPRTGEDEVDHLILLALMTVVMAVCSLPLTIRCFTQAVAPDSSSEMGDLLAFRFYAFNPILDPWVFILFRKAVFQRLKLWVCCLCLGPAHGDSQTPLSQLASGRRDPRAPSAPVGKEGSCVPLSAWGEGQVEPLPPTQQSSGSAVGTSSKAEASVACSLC

Row | Compound | T/C ([1]; test concentration 10 uM) | left shift value [2] | T/C ([1]; test concentration 5 uM) | left shift value [3] | enhancement of vasoconstriction inhibition (vasorelaxation) with respect to beraprost [4]
1 | Cc1ccc2c(c1)CN(C(c1ccccc1C)c1nnnn1C(C)(C)C)CC2 (centres unmarked) [Example 24] | 116.3% | 61.25 µM |  |  | 
2 | Cc1ccccc1C(c1nnnn1C(C)(C)C)N1CCc2ccccc2C1 (centres unmarked) [Example 25] | 177.2% | 5.5 µM |  |  | 
3 | CC(C)(C)n1nnnc1C(c1ccccc1N)N1CCc2ccccc2C1 (centres unmarked) [Example 26] | 105.5% | 163.7 µM |  |  | 
4 | Cc1ccc2c(c1)CN(C(c1ccccc1C)c1nnnn1C(C)(C)C)CC2 (centres unmarked) [Example 27] |  | 15.2 µM | 99.8% |  | 
5 | Cc1ccccc1C(c1nnnn1C(C)(C)C)N1CCc2c(Cl)cccc2C1 (centres unmarked) [Example 29] | 135.5% | 15.2 µM |  |  | 
6 | CC(C)(C)n1nnnc1C(C1=CC=CC1)N1CCc2ccccc2C1 (centres unmarked) [Example 31] | 186.2% | 3.5 µM |  |  | 
7 | CC(C)(C)n1nnnc1C(C1=CCC=C1)N1CCc2ccccc2C1 (centres unmarked) [Example 32] | 153.8% | 8.4 µM |  |  | 
8 | CC(C)(C)n1nnnc1C(c1ccco1)N1CCc2ccccc2C1 (centres unmarked) [Example 33] | 119.7% | 38.4 µM |  |  | 
9 | CC(C)(C)n1nnnc1C(c1ccoc1)N1CCc2ccccc2C1 (centres unmarked) [Example 34] | 145.9% | 11.7 µM |  |  | 
10 | CC(C)(C)n1nnnc1C(c1ccc[nH]1)N1CCc2ccccc2C1 (centres unmarked) [Example 35] | 121.8% | 28.5 µM |  |  | 
11 | COc1cc(F)ccc1C(c1nnnn1C(C)(C)C)N1CCc2ccccc2C1 (centres unmarked) [Example 38] | 147.0% | 15.1 µM |  |  | 
12 | Cc1ccccc1C(c1nnnn1C1(C)CCCCC1)N1CCc2ccccc2C1 (centres unmarked) [Example 42] | 142.5% | 14.5 µM |  |  | 
13 | COc1cc[nH]c1C(c1nnnn1C(C)(C)C)N1CCc2ccccc2C1 (centres unmarked) [Example 43] | 267.8% | 1.2 µM |  |  | 
14 | COc1csc(C(c2nnnn2C(C)(C)C)N2CCc3ccccc3C2)c1 (centres unmarked) [Example 44] |  | 7.7 µM | 143.8% |  | 
15 | Cc1ccccc1C(c1nnnn1C1(C)CCCCCC1)N1CCc2ccccc2C1 (centres unmarked) [Example 46] | 106.2% | 267.0 µM |  |  | 
16 | CC(C)(C)n1nnnc1C(c1ccccc1F)N1CCc2ccccc2C1 (centres unmarked) [Example 54] |  | 4.7 µM |  | 2.9 µM | 
17 | CCOc1ccccc1C(C1=NNCN1C(C)(C)C)N1CCc2ccc(O)cc2C1 (centres unmarked) [Example 56] | 101.0% | 117.3 µM |  |  | 
18 | CC(C)(C)n1nnnc1C(c1ccccc1O)N1CCc2ccccc2C1 (centres unmarked) [Example 57, 2-((1-tert-butyl-1H-tetrazol-5-yl)(3,4-dihydroisoquinolin-2(1H)-yl)methyl)phenol] | 256.5% | 1.4 µM |  |  | 

Second part, led by results:

Row | T/C ([1]; test concentration 10 uM) | left shift value [2] | T/C ([1]; test concentration 5 uM) | left shift value [3] | Compound | enhancement of vasoconstriction inhibition (vasorelaxation) with respect to beraprost [4]
19 | 100.4% | 269.8 µM |  |  | CC(C)(C)n1nnnc1C(c1ccccc1[N+](=O)[O-])N1CCc2ccc(F)cc2C1 (centres unmarked) [Example 30] | 
20 | 172.6% | 5.7 µM |  |  | CC(C)(C)n1nnnc1C(c1c[nH]c2ccccc12)N1CCc2ccccc2C1 (centres unmarked) [Example 36] | 
21 | 104.9% | 71.1 µM |  |  | COc1cccc(OC)c1C(c1nnnn1C(C)(C)C)N1CCc2ccccc2C1 (centres unmarked) [Example 37] | 
22 | 144.4% | 12.3 µM |  |  | CC(C)(C)n1nnnc1C(c1ccccc1)N1CCc2ccccc2C1 (centres unmarked) [Example 39] | 
23 |  | 5.7 µM | 144.3% |  | COc1ccccc1C(c1nnnn1C1(C)CCCCCC1)N1CCc2ccccc2C1 (centres unmarked) [Example 45] | 
24 | 121.9% | 25.4 µM |  |  | CSc1ccccc1C(c1nnnn1C1(C)CCCCCC1)N1CCc2ccccc2C1 (centres unmarked) [Example 47] | 
25 |  | 4.3 µM |  | 3.9 µM | COc1ccccc1C(c1nnnn1C(C)(C)C)N1CCc2ccccc2C1 (centres unmarked) [Example 51] | an enhancement of vasoconstriction inhibition (vasorelaxation) with respect to the IP agonist beraprost was recognized
26 | 102.7% | 78.3 µM |  |  | CC(C)(C)n1nnnc1C(c1ccccc1N)N1CCc2ccccc2C1 (centres unmarked) [Example 58, 2-((1-tert-butyl-1H-tetrazol-5-yl)(3,4-dihydroisoquinolin-2(1H)-yl)methyl)aniline] | 
